Assay results as given in patent US8097650B2, “Method of treating a condition associated with phosphorylation of TASK-1” (The Trustees of Columbia University In The City of New York, priority 2005, dated 2012).

What was measured:
murine TASK-1 = test: TASK-1 current expressed in CHO cells (whole-cell ramp clamp); assay type: cell-based, mouse
Outline: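 CHO cells transiently expressing murine TASK-1, with GFP or CD8 used to identify transfected cells, were studied 48 h after transfection. Whole-cell ramp-clamp recording at room temperature in Tyrode's pH 7.4 with a K-aspartate pipette solution. Records were corrected for a −9.8 mV junction potential and given as mean±SEM.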

[1] = system: mouse ventricular myocytes; test: Action potentials in paced mouse ventricular myocytes (current clamp); assay type: cell-based; conditions: C-PAF 185 nM
Protocol: Adult mice, 2-3 months old, were anesthetized with ketamine/xylazine and their hearts were removed according to protocols approved by the Columbia University-IACUC. Experiments were performed on single rod-shaped, quiescent ventricular myocytes dissociated using a standard retrograde collagenase perfusion (Kuznetsov V et al. (1995) Circ Res 76: 40-52) from hearts of mice that were either wild-type (WT), or PAFR knockouts (KO). Both WT and KO mice were bred on a C57/B16 background. The derivation of the KO mice has been described previously (Hoffman, B F et al.(1996) J Cardiovasc Electrophysiol 7:120-133).
Prior to electrophysiological measurements, cells were placed into the perfusion chamber and superfused at room temperature with Tyrode's buffer (in mM: NaCl, 140; KCl, 5.4; CaCl2 1; MgCl2, Hepes, 5; Glucose, 10; pH 7.4). […]
Current and voltage protocols were generated using Clampex 7.0 software applied by means of an Axopatch 200B amplifier and a Digidata 1200 interface (Axon Instruments). […] Data were analyzed using pCLAMP 8.0 (Axon) and Origin 6.0 (Microcal) and are presented as mean±SEM. Steady-state current was determined by computer calculation of average current over a time period of at least 5 s. […] Records have been corrected for the junction potential, which was measured to be 9.8 mV.

With `CCCCCCCCCCCCCCCCOC[C@H](COP(=O)([O-])OCC[N+](C)(C)C)OC(=O)NC` [C-PAF, carbamyl-platelet-activating factor] the “TASK-1 current density in the presence of drug” value (murine TASK-1; +30 mV, C-PAF 185 nM or PMA 100 nM, no peptide) was 60.2±14.3 pA/pF, the “inhibition of TASK-1 current” value (murine TASK-1; +30 mV, PMA 100 nM (n=17), C-PAF 185 nM (n=20)) was 12.1±1.0% and the “time for decrease in TASK-1 current to reach steady state” value (murine TASK-1; C-PAF 185 nM) was at most 2 min. For the same compound, the “decrease in the mean current density” value (murine TASK-1; C-PAF 185 nM, +30 mV, n=9) was 12%, the “effect on expressed TASK-1 current” value (murine TASK-1; C-PAF 185 nM, Example 1) was “reduced” and the “TASK-1 current density after drug” value (murine TASK-1; PKCε-inhibitor peptide 100 nM in pipette, C-PAF 185 nM or PMA 100 nM) was 25.4±12.4 pA/pF. The “I-V relation after washout, deviation from control value” (murine TASK-1; after washout of C-PAF 185 nM) was at most 5%, the “C-PAF inhibition of TASK-1 current” value (murine TASK-1; modified Tyrode's, elevated K+) was 10.2±1.8% and the “C-PAF-induced inhibition of TASK-1” value (murine TASK-1; scrambled peptide in pipette) was 8.4±1.5%. For the same compound, the “cells in which membrane potential returned to normal during agonist perfusion” value ([1]; 3 min perfusion) was 8 of 9 and the “delay before C-PAF-evoked responses” value ([1]; paced WT myocytes) was 94 ± 21 s.
